Measured values taken from patent US20220177538A1, “CO-AGONISTS AT GLP-1 AND GIP RECEPTORS SUITABLE FOR ORAL DELIVERY” (Novo Nordisk A/S, priority 2020, published 2022).
Like-named read-outs stand apart in the source and are kept apart here. Starred links: 1 amine or outer side, 2 acyl side, 3 side chain; linkers in the order of their positions; H or OH if unused. Non-standard residues stand in square brackets, D forms with d. Residues, ends and D or L forms follow the SMILES beside them. Groups on a side chain read outwards from the residue. *: point of attachment. C18 diacid = O=C(O)CCCCCCCCCCCCCCCCC(=O)*; γGlu = O=C(O)[C@H](CCC(=O)[*:2])N[*:1]; εLys = N[C@@H](CCCCN[*:1])C(=O)[*:2]; AEEA = NCCOCCOCC(=O)O; Aib = CC(C)(N)C(=O)O

How the values were obtained:
[1] = target: T1, human GIP receptor (Homo sapiens, UniProt P48546); test: In vitro functional potency, CRE luciferase reporter, whole BHK cells (hGIPR); type: cell-based; details: BHK CRE luc2P hGIPR cells
T1 construct: expressed in transfected cells; host or cells: BHK (parent line BHKTS13), clone BHK CRE luc2P hGIPR
T1 sequence (P48546 22-466): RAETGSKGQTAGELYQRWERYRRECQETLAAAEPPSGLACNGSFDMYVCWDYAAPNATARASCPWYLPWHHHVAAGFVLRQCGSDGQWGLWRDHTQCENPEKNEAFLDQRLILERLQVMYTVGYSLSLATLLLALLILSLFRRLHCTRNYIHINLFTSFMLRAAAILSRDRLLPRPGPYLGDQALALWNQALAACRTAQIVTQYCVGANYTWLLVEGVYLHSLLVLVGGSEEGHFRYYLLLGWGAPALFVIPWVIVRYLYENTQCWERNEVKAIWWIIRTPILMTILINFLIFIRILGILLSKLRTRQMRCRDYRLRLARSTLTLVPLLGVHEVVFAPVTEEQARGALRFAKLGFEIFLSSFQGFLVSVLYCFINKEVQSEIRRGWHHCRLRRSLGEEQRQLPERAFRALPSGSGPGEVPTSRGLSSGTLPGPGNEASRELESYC
Outline: (§1)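 Potencies are replicate means (n≥2) from non-linear log(agonist) vs response fits of CRE-driven luminescence. Cells were overnight-plated BHK CRE luc2P lines transfected with human GIPR or GLP-1R, 5000/well.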

[2] = target: human GLP-1 receptor (Homo sapiens, UniProt P43220); test: In vitro functional potency, CRE luciferase reporter, whole BHK cells (hGLP-1R); type: cell-based; parameters: expressed in transfected cells; host or cells: BHK (parent line BHKTS13), clone BHK CRE luc2P hGLP-1R; details: BHK CRE luc2P hGLP-1R cells
Outline: as §1

[3] = 0% HSA, read-out: hGIPR, CRE Luc 0% HSA EC50
[4] = hGIPR, CRE Luc 1% HSA EC50, 1% HSA
[5] = 0% HSA, read-out: hGLP-1R, CRE Luc 0% HSA EC50
[6] = hGLP-1R, CRE Luc 1% HSA EC50, 1% HSA

Sequence of human GLP-1 receptor (P43220 24-463): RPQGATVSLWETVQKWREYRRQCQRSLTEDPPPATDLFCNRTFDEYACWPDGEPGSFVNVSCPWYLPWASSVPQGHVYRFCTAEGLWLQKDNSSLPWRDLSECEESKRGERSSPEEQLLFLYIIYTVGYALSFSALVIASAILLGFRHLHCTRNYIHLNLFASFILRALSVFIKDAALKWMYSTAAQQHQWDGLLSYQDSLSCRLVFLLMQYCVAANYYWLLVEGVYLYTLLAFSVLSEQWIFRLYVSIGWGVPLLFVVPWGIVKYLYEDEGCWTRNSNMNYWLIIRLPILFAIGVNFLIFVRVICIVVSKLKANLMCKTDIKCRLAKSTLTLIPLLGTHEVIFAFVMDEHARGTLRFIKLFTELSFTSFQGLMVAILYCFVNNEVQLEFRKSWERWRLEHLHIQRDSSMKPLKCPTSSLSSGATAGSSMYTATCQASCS

Compound | EC50 [1, 3] [nM] | EC50 [1, 4] [nM] | EC50 [2, 5] [nM] | EC50 [2, 6] [nM]
CC[C@H](C)[C@H](NC(=O)[C@H](Cc1ccccc1)NC(=O)[C@H](CCC(=O)O)NC(=O)[C@H](CCCNC(=N)N)NC(=O)[C@H](C)NC(=O)[C@H](C)NC(=O)[C@H](CCC(N)=O)NC(=O)[C@H](CCCCNC(=O)COCCOCCNC(=O)COCCOCCNC(=O)CC[C@H](NC(=O)CCCCCCCCCCCCCCCCC(=O)O)C(=O)O)NC(=O)[C@H](CCC(=O)O)NC(=O)[C@H](CC(C)C)NC(=O)[C@@H](NC(=O)[C@@H](NC(=O)[C@H](CO)NC(=O)[C@H](Cc1ccc(O)cc1)NC(=O)[C@H](CC(=O)O)NC(=O)[C@H](CO)NC(=O)[C@@H](NC(=O)[C@H](Cc1ccccc1)NC(=O)[C@@H](NC(=O)CNC(=O)[C@H](CCC(=O)O)NC(=O)C(C)(C)NC(=O)[C@@H](N)Cc1ccc(O)cc1)[C@@H](C)O)[C@@H](C)O)[C@@H](C)CC)[C@@H](C)CC)C(=O)N[C@@H](CC(N)=O)C(=O)N[C@@H](Cc1c[nH]c2ccccc12)C(=O)N[C@@H](CC(C)C)C(=O)N[C@@H](CC(C)C)C(=O)N[C@@H](C)C(=O)NCC(=O)NCC(=O)N1CCC[C@H]1C(=O)N[C@@H](CO)C(=O)N[C@@H](CO)C(=O)NCC(=O)N[C@@H](C)C(=O)N1CCC[C@H]1C(=O)N1CCC[C@H]1C(=O)N1CCC[C@H]1C(=O)N[C@@H](CO)C(=O)O [Compound 36] (H-Y[Aib]EGTFTSDYSIILEK([AEEA-AEEA-γGlu-C18 diacid])QAAREFINWLLAGGPSSGAPPPS-OH) | 0.0055 | 0.356 | 0.0047 | 0.414
CC[C@H](C)[C@H](NC(=O)[C@H](Cc1ccccc1)NC(=O)[C@H](CCCCNC(=O)[C@@H](N)CCCCNC(=O)[C@@H](N)CCCCNC(=O)CC[C@H](NC(=O)CCCCCCCCCCCCCCCCC(=O)O)C(=O)O)NC(=O)[C@H](CCCNC(=N)N)NC(=O)[C@H](C)NC(=O)[C@H](C)NC(=O)[C@H](CCC(N)=O)NC(=O)[C@H](CCC(=O)O)NC(=O)[C@H](CCC(=O)O)NC(=O)[C@H](CC(C)C)NC(=O)[C@H](Cc1ccc(O)cc1)NC(=O)[C@@H](NC(=O)[C@H](CO)NC(=O)[C@H](Cc1ccc(O)cc1)NC(=O)[C@H](CC(=O)O)NC(=O)[C@H](CO)NC(=O)[C@@H](NC(=O)[C@H](Cc1ccccc1)NC(=O)[C@@H](NC(=O)CNC(=O)[C@H](CCC(=O)O)NC(=O)C(C)(C)NC(=O)[C@@H](N)Cc1ccc(O)cc1)[C@@H](C)O)[C@@H](C)O)[C@@H](C)CC)C(=O)N[C@@H](CC(N)=O)C(=O)N[C@@H](Cc1c[nH]c2ccccc12)C(=O)N[C@@H](CC(C)C)C(=O)N[C@@H](CC(C)C)C(=O)N[C@@H](C)C(=O)NCC(=O)NCC(=O)N1CCC[C@H]1C(=O)N[C@@H](CO)C(=O)N[C@@H](CO)C(=O)NCC(=O)N[C@@H](C)C(=O)N1CCC[C@H]1C(=O)N1CCC[C@H]1C(=O)N1CCC[C@H]1C(=O)N[C@@H](CO)C(=O)O [Compound 37] (H-Y[Aib]EGTFTSDYSIYLEEQAARK([εLys-εLys-γGlu-C18 diacid])FINWLLAGGPSSGAPPPS-OH) | 0.0112 | 0.298 | 0.0027 | 0.0946
CC[C@H](C)[C@H](NC(=O)[C@H](Cc1ccccc1)NC(=O)[C@H](CCC(=O)O)NC(=O)[C@H](CCCNC(=N)N)NC(=O)[C@H](C)NC(=O)[C@H](C)NC(=O)[C@H](CCCCNC(=O)[C@@H](N)CCCCNC(=O)[C@@H](N)CCCCNC(=O)CC[C@H](NC(=O)CCCCCCCCCCCCCCCCC(=O)O)C(=O)O)NC(=O)[C@H](CCC(=O)O)NC(=O)[C@H](CCC(=O)O)NC(=O)[C@H](CC(C)C)NC(=O)[C@H](Cc1ccc(O)cc1)NC(=O)[C@@H](NC(=O)[C@H](CO)NC(=O)[C@H](Cc1ccc(O)cc1)NC(=O)[C@H](CC(=O)O)NC(=O)[C@H](CO)NC(=O)[C@@H](NC(=O)[C@H](Cc1ccccc1)NC(=O)[C@@H](NC(=O)CNC(=O)[C@H](CCC(=O)O)NC(=O)C(C)(C)NC(=O)[C@@H](N)Cc1ccc(O)cc1)[C@@H](C)O)[C@@H](C)O)[C@@H](C)CC)C(=O)N[C@@H](CC(N)=O)C(=O)N[C@@H](Cc1c[nH]c2ccccc12)C(=O)N[C@@H](CC(C)C)C(=O)N[C@@H](CC(C)C)C(=O)N[C@@H](C)C(=O)NCC(=O)NCC(=O)N1CCC[C@H]1C(=O)N[C@@H](CO)C(=O)N[C@@H](CO)C(=O)NCC(=O)N[C@@H](C)C(=O)N1CCC[C@H]1C(=O)N1CCC[C@H]1C(=O)N1CCC[C@H]1C(=O)N[C@@H](CO)C(=O)O [Compound 38] (H-Y[Aib]EGTFTSDYSIYLEEK([εLys-εLys-γGlu-C18 diacid])AAREFINWLLAGGPSSGAPPPS-OH) | 0.0124 | 0.815 | 0.0031 | 0.259
CC[C@H](C)[C@H](NC(=O)[C@H](Cc1ccccc1)NC(=O)[C@H](CCCCNC(=O)[C@@H](N)CCCCNC(=O)[C@@H](N)CCCCNC(=O)CC[C@H](NC(=O)CCCCCCCCCCCCCCCCC(=O)O)C(=O)O)NC(=O)[C@H](CCCNC(=N)N)NC(=O)[C@H](C)NC(=O)[C@H](C)NC(=O)[C@H](CCC(N)=O)NC(=O)[C@H](CCC(=O)O)NC(=O)[C@H](CCC(=O)O)NC(=O)[C@H](CC(C)C)NC(=O)[C@H](CC(C)C)NC(=O)[C@@H](NC(=O)[C@H](CO)NC(=O)[C@H](Cc1ccc(O)cc1)NC(=O)[C@H](CC(=O)O)NC(=O)[C@H](CO)NC(=O)[C@@H](NC(=O)[C@H](Cc1ccccc1)NC(=O)[C@@H](NC(=O)CNC(=O)[C@H](CCC(=O)O)NC(=O)C(C)(C)NC(=O)[C@@H](N)Cc1ccc(O)cc1)[C@@H](C)O)[C@@H](C)O)[C@@H](C)CC)C(=O)N[C@@H](CC(N)=O)C(=O)N[C@@H](Cc1c[nH]c2ccccc12)C(=O)N[C@@H](CC(C)C)C(=O)N[C@@H](CC(C)C)C(=O)N[C@@H](C)C(=O)NCC(=O)NCC(=O)N1CCC[C@H]1C(=O)N[C@@H](CO)C(=O)N[C@@H](CO)C(=O)NCC(=O)N[C@@H](C)C(=O)N1CCC[C@H]1C(=O)N1CCC[C@H]1C(=O)N1CCC[C@H]1C(=O)N[C@@H](CO)C(=O)O [Compound 39] (H-Y[Aib]EGTFTSDYSILLEEQAARK([εLys-εLys-γGlu-C18 diacid])FINWLLAGGPSSGAPPPS-OH) | 0.0284 | 0.365 | 0.0082 | 0.135
CC[C@H](C)[C@H](NC(=O)[C@H](Cc1ccccc1)NC(=O)[C@H](CCC(=O)O)NC(=O)[C@H](CCCNC(=N)N)NC(=O)[C@H](C)NC(=O)[C@H](C)NC(=O)[C@H](CCC(N)=O)NC(=O)[C@H](CCC(=O)O)NC(=O)[C@H](CCC(=O)O)NC(=O)[C@H](CC(C)C)NC(=O)[C@H](Cc1ccc(O)cc1)NC(=O)[C@H](CCCCNC(=O)[C@@H](N)CCCCNC(=O)[C@@H](N)CCCCNC(=O)CC[C@H](NC(=O)CCCCCCCCCCCCCCCCC(=O)O)C(=O)O)NC(=O)[C@H](CO)NC(=O)[C@H](Cc1ccc(O)cc1)NC(=O)[C@H](CC(=O)O)NC(=O)[C@H](CO)NC(=O)[C@@H](NC(=O)[C@H](Cc1ccccc1)NC(=O)[C@@H](NC(=O)CNC(=O)[C@H](CCC(=O)O)NC(=O)C(C)(C)NC(=O)[C@@H](N)Cc1ccc(O)cc1)[C@@H](C)O)[C@@H](C)O)C(=O)N[C@@H](CC(N)=O)C(=O)N[C@@H](Cc1c[nH]c2ccccc12)C(=O)N[C@@H](CC(C)C)C(=O)N[C@@H](CC(C)C)C(=O)N[C@@H](C)C(=O)NCC(=O)NCC(=O)N1CCC[C@H]1C(=O)N[C@@H](CO)C(=O)N[C@@H](CO)C(=O)NCC(=O)N[C@@H](C)C(=O)N1CCC[C@H]1C(=O)N1CCC[C@H]1C(=O)N1CCC[C@H]1C(=O)N[C@@H](CO)C(=O)O [Compound 41] | 0.0049 | 0.0793 | 0.0012 | 0.0314
CC[C@H](C)[C@H](NC(=O)[C@H](Cc1ccccc1)NC(=O)[C@H](CCC(=O)O)NC(=O)[C@H](CCCNC(=N)N)NC(=O)[C@H](C)NC(=O)[C@H](C)NC(=O)[C@H](CCC(N)=O)NC(=O)[C@H](CCC(=O)O)NC(=O)[C@H](CCC(=O)O)NC(=O)[C@H](CC(C)C)NC(=O)[C@H](Cc1ccc(O)cc1)NC(=O)[C@@H](NC(=O)[C@H](CO)NC(=O)[C@H](Cc1ccc(O)cc1)NC(=O)[C@H](CC(=O)O)NC(=O)[C@H](CO)NC(=O)[C@@H](NC(=O)[C@H](Cc1ccccc1)NC(=O)[C@@H](NC(=O)CNC(=O)[C@H](CCC(=O)O)NC(=O)C(C)(C)NC(=O)[C@@H](N)Cc1ccc(O)cc1)[C@@H](C)O)[C@@H](C)O)[C@@H](C)CC)C(=O)N[C@@H](CC(N)=O)C(=O)N[C@@H](Cc1c[nH]c2ccccc12)C(=O)N[C@@H](CC(C)C)C(=O)N[C@@H](CC(C)C)C(=O)N[C@@H](C)C(=O)NCC(=O)NCC(=O)N1CCC[C@H]1C(=O)N[C@@H](CO)C(=O)N[C@@H](CCCCNC(=O)[C@@H](N)CCCCNC(=O)[C@@H](N)CCCCNC(=O)CC[C@H](NC(=O)CCCCCCCCCCCCCCCCC(=O)O)C(=O)O)C(=O)NCC(=O)N[C@@H](C)C(=O)N1CCC[C@H]1C(=O)N1CCC[C@H]1C(=O)N1CCC[C@H]1C(=O)N[C@@H](CO)C(=O)O [Compound 42] (H-Y[Aib]EGTFTSDYSIYLEEQAAREFINWLLAGGPSK([εLys-εLys-γGlu-C18 diacid])GAPPPS-OH) | 0.0059 | 0.306 | 0.0023 | 0.0835
